According to US12377058B1, “Method for inhibiting proliferation of cancer cells” (IMAM MOHAMMAD IBN SAUD ISLAMIC UNIVERSITY, priority 2024, dated 2025):
Converted amounts (≈) assume the structure as drawn.

Columns and labels:
Assay type in all cases: cell-based
[1] = tested on: A549 lung cancer stem cells; assay: cytotoxic IC50 evaluation against A549 cells
Source text: (§1) Referring to FIG. 3, cytotoxic inhibitory concentration of 50 (IC50) evaluation of YS3 against various cancer cells is illustrated.

HELA cancer stem cells = assay: cytotoxic IC50 evaluation against HeLa cells
Source text: as §1

FaDu cancer stem cells = assay: cytotoxic IC50 evaluation against FaDu cells; conditions: Homo sapiens, read from FIG. 3
Source text: as §1

PC3 cancer stem cells = assay: cytotoxic IC50 evaluation against PC3 cells
Source text: as §1

[2] = tested on: MDA-MB-468 cancer stem cells; assay: cytotoxic IC50 evaluation against MDA-MB-468 cells; conditions: Homo sapiens, read from FIG. 3
Source text: as §1

## CCCCCOc1ccc(Oc2ccc(C=O)cc2)cc1 [YS3, 4-(4-(pentoxy)phenoxy)benzaldehyde]
[1]; A549 cell line
  performance compared to doxorubicin (DOX): comparable to DOX
[1]; Homo sapiens, A549 lung cancer stem cells, read from FIG. 3
  IC50: ~5 µg/mL (≈ 17.6 µM)
HELA cancer stem cells; HeLa cell line
  performance compared to doxorubicin (DOX): comparable to DOX
HELA cancer stem cells; Homo sapiens, HELA cancer stem cells, read from FIG. 3
  IC50: ~5 µg/mL (≈ 17.6 µM)
FaDu cancer stem cells
  IC50: ~4 µg/mL (≈ 14.1 µM)
PC3 cancer stem cells; Homo sapiens, PC-3, PC3 cancer stem cells, read from FIG. 3
  IC50: ~4 µg/mL (≈ 14.1 µM)
PC3 cancer stem cells; PC3 cell line
  performance compared to doxorubicin (DOX): comparable to DOX
[2]
  IC50: ~4.5 µg/mL (≈ 15.8 µM)
